According to patent US20240327334A1, “Covalent Inhibitors As Antiviral Agents” (Enanta Pharmaceuticals, Inc., priority 2022, published 2024):

Key:
[1] = target: SARS-CoV-2 Papain-like (PLpro) protease (Severe acute respiratory syndrome coronavirus 2, UniProt P0DTD1); assay: SARS-CoV-2 Papain-like (PLpro) protease biochemical enzyme inhibition assay (ubiquitin-fluorophore substrate, Ub-R110); conditions: Ub-R110 substrate; run in duplicate; read-out: PLpro IC50
SARS-CoV-2 replicon = assay: microbe, parasite or virus in culture; assay type: cell-based; conditions: Severe acute respiratory syndrome coronavirus 2, Huh-7

SMILES | IC50 [1] [nM] | EC50 (SARS-CoV-2 replicon) [nM]
O=C(NCC#Cc1nccs1)C(=O)NCc1ccccc1C(=O)NC1(c2cc(-c3cnn(C4CC4)c3)cc(C3CC3)c2)CC1 [Example 134] | < 100 | < 1000
O=C(NCC#Cc1cnccn1)C(=O)NCc1ccccc1C(=O)NC1(c2ccc3ccccc3c2)CC1 [Example 172] | < 100 | < 1000
CC[C@@H](C#Cc1ncc(F)cn1)NC(=O)C(=O)NCc1ccccc1C(=O)NC1(c2ccc3nn(C)cc3c2)CC1 [Example 213] | < 100 | < 1000
C[C@@H](NC(=O)c1ccccc1CNC(=O)C(=O)NCC#N)c1cc(-c2cnn(C3CC3)c2)cc(C(F)(F)F)c1 [Example 458] | < 100 | < 1000
CONC(=O)/C=C/CNC(=O)C(=O)NCc1ccccc1C(=O)NC1(c2cccc3ccccc23)CC1 [Example 560] | 100 to 1000 | 1000 to 10000
CC1(CNC(=O)C(=O)NCc2ccccc2C(=O)NC2(c3cccc4ccccc34)CC2)CN(C#N)C1 [Example 429] | < 100 | < 1000
CC[C@@H](C#Cc1nccs1)NC(=O)C(=O)NCc1ccccc1C(=O)NC1(c2ccc3nn(C)cc3c2)CC1 [Example 146] | < 100 | < 1000
N#CCNC(=O)C(=O)NCc1ccccc1C(=O)NC1(c2cc(-c3cnn(CC(F)F)c3)cc3ccccc23)CC1 [Example 286] | < 100 | < 1000
C=C(C)c1ccc(-c2cc(C3(NC(=O)c4ccccc4CNC(=O)[C@H]4CCN(C#N)C4)CC3)c3ccccc3c2)s1 [Example 418] | < 100 | < 1000
N#Cc1ccc(C#CCNC(=O)C(=O)NCc2ccccc2C(=O)NC2(c3ccc4ccccc4c3)CC2)nc1 [Example 190] | < 100 | < 1000
N#CCNC(=O)C(=O)NCc1ccc(C(=O)N2CC(F)(F)C2)cc1C(=O)NC1(c2ccc(F)c3ccccc23)CC1 [Example 62] | < 100 | 1000 to 10000
O=C(NCC#Cc1cnc(C2CC2)nc1)C(=O)NCc1ccccc1C(=O)NC1(c2ccc3ccccc3c2)CC1 [Example 180] | 1000 to 10000 | 1000 to 10000
C[C@@H](C#Cc1nccs1)NC(=O)C(=O)NCc1ccccc1C(=O)NC1(c2cc(F)cc(-c3cnn(C4CC4)c3)c2)CC1 [Example 185] | < 100 | < 1000
N#CCNC(=O)C(=O)NCc1ccccc1C(=O)NC1(c2cc(-c3cnn(C4CC4)c3)cc3ccccc23)CC1 [Example 357] | < 100 | < 1000
C[C@@H](NC(=O)c1ccccc1CNC(=O)C(=O)NCC#N)c1cc(-c2ccco2)cc(C(F)(F)F)c1 [Example 467] | < 100 | < 1000
Cn1cc2cc(C3(NC(=O)c4ccccc4CNC(=O)C(=O)NCC#Cc4ccc(C#N)cc4F)CC3)ccc2n1 [Example 103] | < 100 | < 1000
O=C(NC/C=C1\CCOC1=O)C(=O)NCc1ccccc1C(=O)NC1(c2cc(Br)cc3ccccc23)CC1 [Example 151] | < 100 | < 1000
Cn1cc2cc(C3(NC(=O)c4ccccc4CNC(=O)C(=O)NCC#Cc4nccs4)CC3)ccc2n1 [Example 337] | < 100 | < 1000
N#CN1CC[C@@H](CNC(=O)C(=O)NCc2ccccc2C(=O)NC2(c3cccc4ccccc34)CC2)C1 [Example 509] | < 100 | < 1000
C#CCNC(=O)C(=O)NCc1ccccc1C(=O)NC1(c2cc(-c3cnn(C(F)F)c3)cc(C(F)(F)F)c2)CC1 [Example 473] | 100 to 1000 | 1000 to 10000
N#CCNC(=O)C(=O)NCc1ccccc1C(=O)NC1(c2ccnc3cc(Cl)ccc23)CC1 [Example 423] | < 100 | 1000 to 10000
COc1cc(C2(NC(=O)c3ccccc3CNC(=O)C(=O)N[C@@H](C)C#Cc3ncccc3Cl)CC2)cc2cn(C3CC3)nc12 [Example 279] | < 100 | < 1000
C#CCNC(=O)C(=O)NCc1ccccc1C(=O)NC1(c2cc(F)cc(-c3cnn(C)c3)c2)CC1 [Example 238] | < 100 | < 1000
N#CCNC(=O)C(=O)NCc1ccccc1C(=O)NC1(c2cccc(-c3ccc(F)cc3)c2)CC1 [Example 543] | 100 to 1000 | > 10000
COc1ccc(C2(NC(=O)c3ccccc3CNC(=O)C(=O)NCC#N)CC2)cc1Br [Example 229] | < 100 | 1000 to 10000
C#CCNC(=O)C(=O)NCc1ccccc1C(=O)NC1(c2cc(C#C)cc(C(F)(F)F)c2)CC1 [Example 69] | < 100 | < 1000
CC(C)(O)Cn1cc(-c2cc(C3(NC(=O)c4ccccc4CNC(=O)C(=O)NCC#N)CC3)c3ccccc3c2)cn1 [Example 353] | < 100 | < 1000
Cc1nn(C)cc1-c1cc(F)cc(C2(NC(=O)c3ccccc3CNC(=O)C(=O)NCC#N)CC2)c1 [Example 233] | < 100 | > 10000
COc1cc(C2(NC(=O)c3ccccc3CNC(=O)C(=O)NCC#N)CC2)c2cccnc2c1 [Example 411] | < 100 | 1000 to 10000
